What was measured:
α1-antitrypsin (“αAT”) = assay: Semi-quantitative RT-PCR of α1-antitrypsin (αAT) gene expression; format: cell-based, human; conditions: NUCREM cells treated with 1-2 μM retinoic acid, day five (treatment regimen 3); ±94% SEM, three experiments
Description: (§1) Subsequent to cyclin B treatment, the cultures of in vitro derived adult pluripotent stem cells were cultured in the presence of approximately 1-2 μM retinoic acid (“RA”) (Sigma, St. Louis) for five (5) to 10 days. […] By day five (5) of retinoic acid treatment, approximately 50% of the cells in culture attained a neuron-like morphology (FIG. 1). At day five of RA treatment (treatment regimen 3), RNA was extracted from the cultures for RT-PCR analysis. […]
(§2) RT-PCR was performed using the QIAGEN® OneStep RT-PCR Kit (Qiagen Inc., Valencia, Calif.) according to the manufacturer's instructions. […] To control for the quality of the extracted RNA and to serve as an internal quantification marker, human glyceraldehyde 3-phosphate dehydrogenase (“GAPDH”) oligonucleotide primers were included in the RT-PCR reaction.
(§3) The RT-PCR products were run out on a 2% agarose gel, which was then stained with ethidium bromide. The intensity of the resultant DNA bands were quantified using the PHORETIX™ TotalLab densitometry software package developed by Nonlinear USA (Durham, N.C.). […]

human telomerase (“TRT”) = assay: Semi-quantitative RT-PCR of telomerase (TRT) gene expression; format: cell-based; conditions: NUCREM cells subsequently treated with 1-2 μM retinoic acid, day five (treatment regimen 3)
Description: 5-aza-2′-deoxycytidine (Sigma, St. Louis) was added at a concentration of 10-25 μM to cultures of human adult keratinocytes that were approximately 40% to 80% confluent. These cultures were further incubated for approximately four (4) days at 37° C. in an atmosphere of 5-10% CO2. After four days in the presence of 5-aza-2′-deoxycytidine, trichostatin A (Sigma, St. Louis) was added to the cultures at a concentration of 100-250 ng/ml. Cultures were further incubated for approximately one (1) day, as described above. RNA was extracted from some of the aliquots of cultures at this point (treatment regimen 1) for subsequent RT-PCR analysis. Other aliquots of cultures were subsequently treated as follows. […]
as §2, §3

cardiac actin (“cACT”) = assay: Semi-quantitative RT-PCR of cardiac actin (cACT) gene expression; format: cell-based, human; conditions: NUCREM cells treated with 1-2 μM retinoic acid, day five (treatment regimen 3); ±118% SEM, three experiments
Description: as §1, §2, §3

[1] = tested on: in vitro derived adult pluripotent stem cells (“NUCREM™ cells”); assay: Retinoic acid induced differentiation of in vitro derived adult pluripotent stem cells (morphology); format: cell-based, human; conditions: approximately 1-2 μM retinoic acid, day five
Description: Subsequent to cyclin B treatment, the cultures of in vitro derived adult pluripotent stem cells were cultured in the presence of approximately 1-2 μM retinoic acid (“RA”) (Sigma, St. Louis) for five (5) to 10 days. […] By day five (5) of retinoic acid treatment, approximately 50% of the cells in culture attained a neuron-like morphology (FIG. 1). At day five of RA treatment (treatment regimen 3), RNA was extracted from the cultures for RT-PCR analysis.

[2] = tested on: neurofilament heavy chain (“NF”); assay: Semi-quantitative RT-PCR of neurofilament heavy chain (NF) gene expression; format: cell-based, human; conditions: NUCREM cells treated with 1-2 μM retinoic acid, day five (treatment regimen 3); ±45% SEM, three experiments
Description: as §1, §2, §3

SMILES: CC1=C(/C=C/C(C)=C/C=C/C(C)=C/C(=O)O)C(C)(C)CCC1 [retinoic acid]
- increase in levels of expression of αAT relative to untreated keratinocytes (α1-antitrypsin (“αAT”)): 343%
- decrease in levels of expression of TRT (human telomerase (“TRT”)): approximately 50%
- increase in levels of expression of cACT relative to untreated keratinocytes (cardiac actin (“cACT”)): 667%
- cells in culture that attained a neuron-like morphology [1]: approximately 50%
- increase in levels of expression of NF relative to untreated keratinocytes [2]: 89%

Source: patent US20040120932A1, “In vitro-derived adult pluripotent stem cells and uses therefor” (priority 2000, published 2004)
